Data on 28 molecules can be found in patent US9914730B2, “Azaquinazoline inhibitors of Atypical protein Kinase C” (Ignyta, Inc., priority 2012, dated 2018).

Each structure is given as a SMILES string.

This test has as its target T1, full-length human PKCι (Homo sapiens, UniProt P41743).
T1 construct: Recombinant, full-length human PKCι expressed in Sf21 insect cells is also commercially available; purchased; host or cells: Sf21 insect cells
T1 sequence (P41743 1-596): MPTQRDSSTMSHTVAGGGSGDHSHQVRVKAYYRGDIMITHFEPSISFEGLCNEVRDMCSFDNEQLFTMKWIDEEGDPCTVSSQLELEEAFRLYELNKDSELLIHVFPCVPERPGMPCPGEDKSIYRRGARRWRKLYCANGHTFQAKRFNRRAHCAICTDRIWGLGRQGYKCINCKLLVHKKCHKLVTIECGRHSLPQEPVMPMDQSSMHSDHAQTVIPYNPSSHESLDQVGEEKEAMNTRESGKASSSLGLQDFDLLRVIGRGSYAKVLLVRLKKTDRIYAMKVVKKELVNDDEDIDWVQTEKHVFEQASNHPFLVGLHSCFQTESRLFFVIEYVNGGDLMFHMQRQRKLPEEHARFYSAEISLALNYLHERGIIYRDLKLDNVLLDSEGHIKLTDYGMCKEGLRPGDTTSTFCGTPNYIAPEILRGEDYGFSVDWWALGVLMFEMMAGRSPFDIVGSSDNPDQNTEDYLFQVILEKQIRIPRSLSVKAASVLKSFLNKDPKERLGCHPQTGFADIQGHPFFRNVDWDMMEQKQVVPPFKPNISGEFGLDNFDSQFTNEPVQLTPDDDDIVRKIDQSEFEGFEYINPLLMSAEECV
Nature of the test: PKCι IC50 IMAP assay, full-length PKCι at 150 μM ATP. To be noted: read-out: IC50 in IMAP assay against full length PKCi at 150 μM ATP. The format is biochemical. Summed up:
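Dose-response IC50 values come from IMAP fluorescence polarisation after 60 min room-temperature turnover of 100 nM FAM peptide by ~15 pM insect-cell-expressed full-length PKCι at 150 μM ATP (5× KM^APP), normalised to no-compound and no-enzyme controls.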
For `c1ccc(C2(c3cc4c(-c5nc(N6CCNCC6)c6c(C7CC7)cncc6n5)ccnc4[nH]3)CCC2)cc1` [Example 2064, 5-Cyclopropyl-2-[2-(1-phenyl-cyclobutyl)-1H-pyrrolo[2,3-b]pyridin-4-yl]-4-piperazin-1-yl-pyrido[3,4-d]pyrimidine], the concentration for half-maximal inhibition (IC50) (as a rule, the midpoint of a concentration-inhibition curve) is under 100 nM.
The value for `Fc1cc(F)c(Nc2cc(-c3nc(NC4CCNCC4)c4c(C5CC5)cncc4n3)ccn2)nc1F` [Example 2065, {5-Cyclopropyl-2-[2-(3,5,6-trifluoro-pyridin-2-ylamino)-pyridin-4-yl]-pyrido[3,4-d]pyrimidin-4-yl}-piperidin-4-yl-amine] was under 100 nM; that for `CC(Nc1cc(-c2nc(N3CCNCC3)c3c(C4CC4)cncc3n2)ccn1)C1CCCO1` (stereo not shown) [Example 2066, [4-(5-Cyclopropyl-4-piperazin-1-yl-pyrido[3,4-d]pyrimidin-2-yl)-pyridin-2-yl]-[1-(tetrahydro-furan-2-yl)-ethyl]-amine] was under 100 nM.
The result for `C[C@@H](Nc1cc(-c2nc(N3CCNCC3)c3c(C4CC4)cncc3n2)ccn1)c1ccccc1F` [Example 2067, [4-(5-Cyclopropyl-4-piperazin-1-yl-pyrido[3,4-d]pyrimidin-2-yl)-pyridin-2-yl]-[(R)-1-(2-fluoro-phenyl)-ethyl]-amine] reads under 100 nM; that for `FC(F)(F)c1cc2c(-c3nc(NC4CCNCC4)c4c(C5CC5)cncc4n3)ccnc2[nH]1` [Example 2068, [5-Cyclopropyl-2-(2-trifluoromethyl-1H-pyrrolo[2,3-b]pyridin-4-yl)-pyrido[3,4-d]pyrimidin-4-yl]-piperidin-4-yl-amine], under 100 nM; that for `CN(c1nc(-c2ccnc3[nH]c(C(F)(F)F)cc23)nc2cncc(C3CC3)c12)C1CCNCC1` [Example 2070, [5-Cyclopropyl-2-(2-trifluoromethyl-1H-pyrrolo[2,3-b]pyridin-4-yl)-pyrido[3,4-d]pyrimidin-4-yl]-methyl-piperidin-4-yl-amine], under 100 nM.
The result for `FC(F)(F)c1cc2c(-c3nc(N4CCNCC4)c4c(C5CC5)cnc(Cl)c4n3)ccnc2[nH]1` [Example 2071, 8-Chloro-5-cyclopropyl-4-piperazin-1-yl-2-(2-trifluoromethyl-1H-pyrrolo[2,3-b]pyridin-4-yl)-pyrido[3,4-d]pyrimidine] reads under 100 nM; that for `c1ccn2nc(Nc3cc(-c4nc(N5CCNCC5)c5c(C6CC6)cncc5n4)ccn3)cc2c1` [Example 2072, [4-(5-Cyclopropyl-4-piperazin-1-yl-pyrido[3,4-d]pyrimidin-2-yl)-pyridin-2-yl]-pyrazolo[1,5-a]pyridin-2-yl-amine], under 100 nM; that for `C[C@@H]1CN(c2nc(-c3ccnc(NC4CCN(CC(F)(F)F)CC4)c3)nc3cncc(C4CC4)c23)C[C@H](C)N1` [Example 2073, {4-[5-Cyclopropyl-4-((cis)-3,5-dimethyl-piperazin-1-yl)-pyrido[3,4-d]pyrimidin-2-yl]-pyridin-2-yl}-[1-(2,2,2-trifluoro-ethyl)-piperidin-4-yl]-amine], under 100 nM.
With `Clc1cc2c(-c3nc(N4CCNCC4)c4c(C5CC5)cncc4n3)ccnc2[nH]1` [Example 2074, 2-(2-Chloro-1H-pyrrolo[2,3-b]pyridin-4-yl)-5-cyclopropyl-4-piperazin-1-yl-pyrido[3,4-d]pyrimidine], the IC50 is under 100 nM.
The value for `COCc1cc2c(-c3nc(N4CCNCC4)c4c(C5CC5)cncc4n3)ccnc2[nH]1` [Example 2075, 5-Cyclopropyl-2-(2-methoxymethyl-1H-pyrrolo[2,3-b]pyridin-4-yl)-4-piperazin-1-yl-pyrido[3,4-d]pyrimidine] was under 100 nM; that for `O=C1CC(Nc2nc(-c3ccnc(Nc4c(F)cccc4F)c3)nc3cncc(C4CC4)c23)CCN1` (stereo not shown) [Example 2076, 4-{5-Cyclopropyl-2-[2-(2,6-difluoro-phenylamino)-pyridin-4-yl]-pyrido[3,4-d]pyrimidin-4-ylamino}-piperidin-2-one] was 100 to 1000 nM; that for `Cn1c(C(F)(F)F)cc2c(-c3nc(N[C@@H]4CCNC4)c4c(C5CC5)cncc4n3)ccnc21` [Example 2077, [5-Cyclopropyl-2-(1-methyl-2-trifluoromethyl-1H-pyrrolo[2,3-b]pyridin-4-yl)-pyrido[3,4-d]pyrimidin-4-yl]-(R)-pyrrolidin-3-yl-amine] was 10000 to 40000 nM.
The value for `c1ccc2nc(Nc3cc(-c4nc(N5CCNCC5)c5c(C6CC6)cncc5n4)ccn3)ccc2c1` [Example 2078, [4-(5-Cyclopropyl-4-piperazin-1-yl-pyrido[3,4-d]pyrimidin-2-yl)-pyridin-2-yl]-[D4],[D3]uinolin-2-yl-amine] was under 100 nM; that for `COCc1cc2c(-c3nc(N4CCNCC4)c4c(C5CCC5)cncc4n3)ccnc2[nH]1` [Example 2080, 5-Cyclobutyl-2-(2-methoxymethyl-1H-pyrrolo[2,3-b]pyridin-4-yl)-4-piperazin-1-yl-pyrido[3,4-d]pyrimidine] was under 100 nM.
With `CN1CCC(N(C)c2nc(-c3ccnc4[nH]c(C(F)(F)F)cc34)nc3cncc(C4CC4)c23)CC1` [Example 2081, [5-Cyclopropyl-2-(2-trifluoromethyl-1H-pyrrolo[2,3-b]pyridin-4-yl)-pyrido[3,4-d]pyrimidin-4-yl]-methyl-(1-methyl-piperidin-4-yl)-amine], the IC50 is under 100 nM.
The result for `c1cc(-c2nc(N3CCNCC3)c3c(C4CCC4)cncc3n2)c2cc[nH]c2n1` [Example 2082, 5-Cyclobutyl-4-piperazin-1-yl-2-(1H-pyrrolo[2,3-b]pyridin-4-yl)-pyrido[3,4-d]pyrimidine] reads under 100 nM; that for `CN1CCC(N(C)c2nc(-c3ccnc(Nc4c(F)cccc4F)c3)nc3cncc(C4CC4)c23)CC1` [Example 2083, {5-Cyclopropyl-2-[2-(2,6-difluoro-phenylamino)-pyridin-4-yl]-pyrido[3,4-d]pyrimidin-4-yl}-methyl-(1-methyl-piperidin-4-yl)-amine], under 100 nM; that for `CN1CCC(Nc2nc(-c3ccnc(Nc4c(F)cccc4F)c3)nc3cncc(C4CC4)c23)CC1` [Example 2084, {5-Cyclopropyl-2-[2-(2,6-difluoro-phenylamino)-pyridin-4-yl]-pyrido[3,4-d]pyrimidin-4-yl}-(1-methyl-piperidin-4-yl)-amine], under 100 nM.
The value for `CC(=O)N1CCC(Nc2nc(-c3ccnc(Nc4c(F)cccc4F)c3)nc3cncc(C4CC4)c23)CC1` [Example 2085, 1-(4-{5-Cyclopropyl-2-[2-(2,6-difluoro-phenylamino)-pyridin-4-yl]-pyrido[3,4-d]pyrimidin-4-ylamino}-piperidin-1-yl)-ethanone] was 100 to 1000 nM; that for `CC(C)(c1ccccc1)c1cc2c(-c3nc(N4CCNCC4)c4c(C5CC5)cncc4n3)ccnc2[nH]1` [Example 2086, 5-Cyclopropyl-2-[2-(1-methyl-1-phenyl-ethyl)-1H-pyrrolo[2,3-b]pyridin-4-yl]-4-piperazin-1-yl-pyrido[3,4-d]pyrimidine] was under 100 nM; that for `Clc1c[nH]c2nccc(-c3nc(N4CCNCC4)c4c(C5CC5)cncc4n3)c12` [Example 2087, 2-(3-Chloro-1H-pyrrolo[2,3-b]pyridin-4-yl)-5-cyclopropyl-4-piperazin-1-yl-pyrido[3,4-d]pyrimidine] was under 100 nM.
As to `CN(c1nc(-c2ccnc3[nH]c(C(F)(F)F)cc23)nc2cncc(C3CC3)c12)[C@@H]1CCNC1` [Example 2088, [5-Cyclopropyl-2-(2-trifluoromethyl-1H-pyrrolo[2,3-b]pyridin-4-yl)-pyrido[3,4-d]pyrimidin-4-yl]-methyl-(R)-pyrrolidin-3-yl-amine], the IC50 was under 100 nM.
The result for `c1ccc2c(Nc3cc(-c4nc(N5CCNCC5)c5c(C6CC6)cncc5n4)ccn3)nccc2c1` [Example 2089, [4-(5-Cyclopropyl-4-piperazin-1-yl-pyrido[3,4-d]pyrimidin-2-yl)-pyridin-2-yl]-iso[D4],[D3]uinolin-1-yl-amine] reads under 100 nM; that for `c1ccc2c(c1)[nH]c1nccc(-c3nc(N4CCNCC4)c4c(C5CCC5)cncc4n3)c12` [Example 2090, 4-(5-Cyclobutyl-4-piperazin-1-yl-pyrido[3,4-d]pyrimidin-2-yl)-9H-pyrido[2,3-b]indole], 100 to 1000 nM; that for `c1ccc2c(c1)[nH]c1nccc(-c3nc(N4CCNCC4)c4ccncc4n3)c12` [Example 2091, 4-(4-Piperazin-1-yl-pyrido[3,4-d]pyrimidin-2-yl)-9H-pyrido[2,3-b]indole], under 100 nM.
Consider `Cc1cc2c(-c3nc(N4CCNCC4)c4c(C5CC5)cnc(Cl)c4n3)ccnc2[nH]1` [Example 2092, 8-Chloro-5-cyclopropyl-2-(2-methyl-1H-pyrrolo[2,3-b]pyridin-4-yl)-4-piperazin-1-yl-pyrido[3,4-d]pyrimidine], for which the IC50 is under 100 nM.
Regarding `C=Cc1cncc2nc(-c3ccnc(Nc4c(F)cccc4F)c3)nc(N3CCNCC3)c12` [Example 2094, (2,6-Difluoro-phenyl)-[4-(4-piperazin-1-yl-5-vinyl-pyrido[3,4-d]pyrimidin-2-yl)-pyridin-2-yl]-amine], the IC50 is under 100 nM.
